From ChEMBL document CHEMBL3867472, “Discovery of benzofuran propanoic acid GPR120 agonists: From uHTS hit to mechanism-based pharmacodynamic effects” (Bioorg Med Chem Lett, 2016) come the findings set out here.

Assay [1] deals with T1, Free fatty acid receptor 4 (Homo sapiens, UniProt Q5NUL3).
T1 sequence (Q5NUL3 whole entry): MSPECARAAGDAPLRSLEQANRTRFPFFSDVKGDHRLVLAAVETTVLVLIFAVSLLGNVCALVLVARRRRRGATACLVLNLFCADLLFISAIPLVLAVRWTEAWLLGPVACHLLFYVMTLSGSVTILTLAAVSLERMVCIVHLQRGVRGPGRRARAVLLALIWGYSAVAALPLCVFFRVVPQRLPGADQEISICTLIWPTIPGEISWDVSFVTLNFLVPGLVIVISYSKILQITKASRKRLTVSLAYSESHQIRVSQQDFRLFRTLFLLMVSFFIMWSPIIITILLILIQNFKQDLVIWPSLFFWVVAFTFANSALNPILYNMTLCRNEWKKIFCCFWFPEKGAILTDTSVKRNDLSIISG
Kind of assay: Agonist activity at human GPR120 expressed in CHOK1 cells measured after 60 mins by IP1-HTRF assay. In kind it is functional, cell-based, CHO-K1. In general terms: TR-FRET usually uses a lanthanide donor and a delayed reading to cut background.

Assay [2] concerns the target T2, Free fatty acid receptor 1 (Homo sapiens, UniProt O14842). Put plainly: Agonist activity at human GPR40 measured after 60 mins by IP1-HTRF assay relative to basal level. On the set-up: concentration or dose not given beside the values. Type of assay: functional.
Assay [3] has as its target T3, Free fatty acid receptor 4 (Homo sapiens) (UniProt Q5NUL3).
T3 sequence (whole entry): T1 sequence (Q5NUL3 whole entry)
Kind of assay: Agonist activity at human GPR120 expressed in CHOK1 cells measured after 60 mins by IP1-HTRF assay relative to basal level. Type of assay: functional, cell-based. On the set-up: concentration or dose not given beside the values. The settings on record: CHO-K1.

Assay [4] addresses T4, Free fatty acid receptor 4 (Mus musculus) (UniProt Q7TMA4).
T4 sequence (whole entry): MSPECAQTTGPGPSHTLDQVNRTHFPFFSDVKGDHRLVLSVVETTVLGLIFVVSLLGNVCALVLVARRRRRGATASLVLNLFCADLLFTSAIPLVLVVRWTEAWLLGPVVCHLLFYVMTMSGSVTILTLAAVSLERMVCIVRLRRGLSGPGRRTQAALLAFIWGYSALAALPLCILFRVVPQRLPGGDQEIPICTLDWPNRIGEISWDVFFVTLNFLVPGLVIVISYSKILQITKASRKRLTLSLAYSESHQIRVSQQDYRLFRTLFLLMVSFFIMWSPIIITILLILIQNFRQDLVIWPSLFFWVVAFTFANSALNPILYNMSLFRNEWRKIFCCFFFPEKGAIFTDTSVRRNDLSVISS
Put plainly: Agonist activity at mouse GPR120 expressed in CHOK1 cells measured after 60 mins by IP1-HTRF assay relative to basal level. In kind it is functional, cell-based. The arrangement: concentration or dose not given beside the values. The settings on record: CHO-K1.

The target of assay [5] is T2, Free fatty acid receptor 1. Put plainly: Agonist activity at human GPR40 measured after 60 mins by IP1-HTRF assay. Type of assay: functional.
Assay [6] concerns the target T5, Free fatty acid receptor 4 (Mus musculus, UniProt Q7TMA4).
T5 sequence (Q7TMA4 whole entry): T4 sequence (whole entry)
Put plainly: Agonist activity at mouse GPR120 expressed in CHOK1 cells measured after 60 mins by IP1-HTRF assay. Type of assay: functional, cell-based, CHO-K1.

T2 sequence (O14842 whole entry): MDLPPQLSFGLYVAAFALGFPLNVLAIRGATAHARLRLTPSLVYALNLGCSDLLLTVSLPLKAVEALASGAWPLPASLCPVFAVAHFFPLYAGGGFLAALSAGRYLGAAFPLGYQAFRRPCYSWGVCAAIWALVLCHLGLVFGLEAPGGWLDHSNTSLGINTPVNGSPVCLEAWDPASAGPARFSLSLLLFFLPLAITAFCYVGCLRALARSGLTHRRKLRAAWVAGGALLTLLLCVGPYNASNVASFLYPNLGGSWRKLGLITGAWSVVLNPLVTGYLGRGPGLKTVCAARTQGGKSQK

By EC50 is commonly meant the concentration needed to bring the measured effect to its halfway point. Turning to `O=C(O)CCCOc1ccc(-c2cc(Oc3ccccc3)ccc2F)cc1`, the EC50 in assay [1] is 100 nM; in assay [5], 3.59 µM; in assay [6], 29 nM. The figures for the Activity in assay [2], in assay [3] and in assay [4] were 91%, 71% and 80%, respectively.
`O=C(O)CCCOc1ccc(-c2ccccc2C(F)(F)F)cc1`: the figures for the half-maximal effective concentration (EC50) in assay [1], in assay [5] and in assay [6] were 8170 nM, above 9.95 µM and 2190 nM, respectively. For the same molecule, the Activity in assay [3] was determined as 31%; in assay [4] it was 15%.
For `O=C(O)CCCOc1ccc(-c2ccccc2OC(F)(F)F)cc1`, the EC50 was 3000 nM in assay [1], above 9.95 µM in assay [5] and 1870 nM in assay [6]. In addition, the Activity amounted to 19% in assay [3] and 20% in assay [4].
Take `Cc1cc(OC2CCC2)cc(-c2ccc3oc(CCC(=O)O)cc3c2)c1`: the EC50 in assay [1] was 68 nM; in assay [5], 2.96 µM; in assay [6], 28 nM. Besides, the values for the Activity in assay [2], in assay [3] and in assay [4] were 51%, 51% and 69%, respectively.
With `O=C(O)CCC1Cc2cc(-c3cc(OC(F)(F)F)ccc3F)ccc2O1` (stereo in doubt; 44) [listing 1 of 2 here], the Activity in assay [2] worked out at 24%; in assay [3], 101%; in assay [4], 68%.
As for `O=C(O)c1cc2cc(-c3cc(OC(F)(F)F)ccc3F)ccc2o1`, the EC50 in assay [1] is above 9950 nM; in assay [5], above 9.95 µM; in assay [6], above 9950 nM.
Take `O=C(O)CCCOc1ccc(-c2cc(OC(F)(F)F)ccc2Cl)c(F)c1`: the figures for the EC50 in assay [1], in assay [5] and in assay [6] were 186 nM, above 9.95 µM and 36 nM, respectively. For the same molecule, the Activity was 60% in assay [3] and 66% in assay [4].
Turning to `O=C(O)CCCOc1ccc(-c2cc(Oc3cccc(F)c3)ccc2F)cc1`, the figures for the EC50 in assay [1], in assay [5] and in assay [6] were 60 nM, 9.46 µM and 27 nM, respectively. The Activity in assay [2] worked out at 110%; in assay [3], 107%; in assay [4], 98%.
With `CC(CC(=O)O)c1cc2cc(-c3cc(OC(F)(F)F)ccc3F)ccc2o1` (racemic), the EC50 in assay [1] was 819 nM; in assay [5], above 9.95 µM; in assay [6] it was 74 nM. In addition, the Activity in assay [3] worked out at 24%; in assay [4], 57%.
Take `O=C(O)CCCOc1c(F)cc(-c2cc(OC(F)(F)F)ccc2F)cc1F`: the EC50 in assay [1] worked out at 20 nM; in assay [5] it was 5.41 µM; in assay [6] it was 7 nM. The Activity in assay [2] was 46%; in assay [3] it was 69%; in assay [4], 75%.
Consider `CCOc1ccc(F)c(-c2ccc(OCCCC(=O)O)cc2)c1`, for which the EC50 in assay [1] is 290 nM; in assay [5], 3.19 µM; in assay [6] it was 140 nM. Also, the values for the Activity in assay [2], in assay [3] and in assay [4] were 22%, 71% and 58%, respectively.
Consider `O=C(O)CCC1Cc2cc(-c3cc(OC(F)(F)F)ccc3F)ccc2O1` (stereo in doubt; 45) [listing 1 of 2 here], for which the half-maximal effective concentration (EC50) in assay [1] was determined as 137 nM; in assay [5] it was 1.35 µM; in assay [6], 106 nM.
Take `O=C(O)CCc1cc2cc(-c3cc(Cl)cc(OC4CCC4)c3)ccc2o1`: the EC50 is 188 nM in assay [1], above 9.95 µM in assay [5] and 64 nM in assay [6]. The Activity in assay [3] was found to be 50%; in assay [4] it was 55%.
`O=C(O)CCCOc1ccc(-c2cc(OC3CC3)ccc2F)cc1`: the results for the EC50 in assay [1], in assay [5] and in assay [6] were 66 nM, above 9.95 µM and 32 nM, respectively. Moreover, the figures for the Activity in assay [3] and in assay [4] were 68% and 61%, respectively.
For the molecule `O=C(O)CCCOc1ccc(-c2cccc(Oc3ccccc3)c2)cc1`, the EC50 in assay [1] turned out to be 170 nM; in assay [5] it was 6.8 µM; in assay [6], 67 nM. For the same molecule, the Activity in assay [2] stood at 54%; in assay [3], 46%; in assay [4], 58%.
For the molecule `O=C(O)CCc1cc2cc(-c3cccc(OC(F)(F)F)c3)ccc2o1`, the values for the EC50 in assay [1], in assay [5] and in assay [6] were 544 nM, 1.39 µM and 326 nM, respectively. Further, the Activity in assay [2] worked out at 43%; in assay [3], 48%; in assay [4], 59%.
For the molecule `Cc1cc(OCCCC(=O)O)ccc1-c1cc(OC(F)(F)F)ccc1Cl`, the concentration giving a half-maximal response (EC50) in assay [1] is 254 nM; in assay [5] it was above 9.95 µM; in assay [6], 78 nM. For the same molecule, the results for the Activity in assay [3] and in assay [4] were 32% and 29%, respectively.
On to `Cc1cc(-c2cc(OC(F)(F)F)ccc2Cl)ccc1OCCCC(=O)O`, for which the results for the concentration for a half-maximal effect (EC50) in assay [1], in assay [5] and in assay [6] were 185 nM, 6.72 µM and 131 nM, respectively. Moreover, the values for the Activity in assay [2], in assay [3] and in assay [4] were 37%, 57% and 62%, respectively.
In the case of `Cc1ccc(Oc2cccc(-c3ccc(OCCCC(=O)O)cc3)c2)cc1`, the 50% effective concentration (EC50) in assay [1] is 182 nM; in assay [5] it was above 9.95 µM; in assay [6], 66 nM. For the same molecule, the results for the Activity in assay [3] and in assay [4] were 77% and 83%, respectively.
Turning to `O=C(O)CCC1Cc2cc(-c3cc(OC(F)(F)F)ccc3F)ccc2O1` (stereo in doubt; 44) [listing 2 of 2 here], the EC50 was 77 nM in assay [1], 1.37 µM in assay [5] and 31 nM in assay [6].
Regarding `O=C(O)CCC1Cc2cc(-c3cc(OC(F)(F)F)ccc3F)ccc2O1` (stereo in doubt; 45) [listing 2 of 2 here], the Activity turned out to be 91% in assay [2], 49% in assay [3] and 65% in assay [4].
Consider `O=C(O)CCc1cc2cc(-c3cccc(OC4CCC4)c3)ccc2o1`, for which the EC50 was 153 nM in assay [1], 2.5 µM in assay [5] and 35 nM in assay [6]. Further, the Activity came out at 40% in assay [2], 65% in assay [3] and 66% in assay [4].
Turning to `COc1cccc(Oc2cccc(-c3ccc(OCCCC(=O)O)cc3)c2)c1`, the results for the half-maximal effective concentration (EC50) in assay [1], in assay [5] and in assay [6] were 498 nM, 6.31 µM and 264 nM, respectively. The Activity was 101% in assay [2], 19% in assay [3] and 20% in assay [4].
In the case of `O=C(O)CCc1cc2cc(-c3cc(OC(F)(F)F)ccc3Cl)ccc2o1`, the 50% effective concentration (EC50) in assay [1] is 102 nM; in assay [5], above 9.95 µM; in assay [6] it was 12 nM. The Activity came to 69% in assay [3] and 76% in assay [4].
Regarding `Cc1cc(-c2cc(OC(F)(F)F)ccc2F)ccc1OCCCC(=O)O`, the EC50 in assay [1] turned out to be 308 nM; in assay [5], 9.26 µM; in assay [6], 79 nM. For the same molecule, the Activity came out at 34% in assay [2], 52% in assay [3] and 37% in assay [4].
For `Fc1ccc(OC(F)(F)F)cc1-c1ccc2oc(CCc3nn[nH]n3)cc2c1`, the EC50 was above 9950 nM in assay [1], above 9.95 µM in assay [5] and 316 nM in assay [6]. In addition, the Activity in assay [4] stood at 28%.
`CCOc1ccc(Cl)c(-c2ccc(OCCCC(=O)O)cc2)c1`: the EC50 turned out to be 121 nM in assay [1], 1.13 µM in assay [5] and 32 nM in assay [6]. Also, the Activity in assay [2] amounted to 30%; in assay [3], 66%; in assay [4], 65%.
For the molecule `Cc1cc(-c2cc(OC(F)(F)F)ccc2F)cc(C)c1OCCCC(=O)O`, the results for the EC50 in assay [1], in assay [5] and in assay [6] were 149 nM, above 9.95 µM and 47 nM, respectively. Further, the Activity was 87% in assay [3] and 86% in assay [4].
Taken in the same sequence, the figures for `O=C(O)CCCOc1ccc(-c2cc(Oc3cccnc3)ccc2Cl)cc1` were 88 nM, above 9.95 µM, 34 nM, 58% and 77%.
Taken in the same sequence, the figures for `CC(Cc1cc2cc(-c3cc(OC(F)(F)F)ccc3F)ccc2o1)C(=O)O` (racemic) were 83 nM, above 9.95 µM, 70 nM, 10% and 44%.
Taken in the same sequence, the figures for `O=C(O)CCCOc1ccc(-c2ccccc2Oc2ccccc2)cc1` were 546 nM, above 9.95 µM, 418 nM, 25% and 21%.
As for `O=C(O)CCCOc1ccc(-c2cccc(OCc3ccccc3)c2)cc1`, the EC50 in assay [1] was above 9950 nM; in assay [5], above 9.95 µM; in assay [6] it was above 9950 nM.
On to `O=C(O)CCc1cc2cc(-c3cc(C(=O)C4CC4)ccc3F)ccc2o1`, for which the 50% effective concentration (EC50) is 97 nM in assay [1], above 9.95 µM in assay [5] and 22 nM in assay [6]. The Activity in assay [3] was 92%; in assay [4], 75%.
